Measurements as given in article PMC7237762, “Total Synthesis and Biological Evaluation of Kakeromamide A and Its Analogues” (Frontiers in Chemistry, 2020).

What was measured:
[1] = test system: neural stem cells (NSCs); test: NSC differentiation assay, astrocytic differentiation (GFAP immunostaining); format: cell-based; settings: 2.5, 5 and 10 μM; 72 hours in differentiation medium; anti-GFAP immunostaining, Hoechst 33342 nuclei; n = 3
Protocol: (§1) Next, kakeromamide A or its respective derivative was exposed at three concentrations (2.5, 5, and 10 μM) during differentiation of neural stem cells (NSCs). The effects of kakeromamide A and its analogs on the neural differentiation into neurons or astrocytes were evaluated by using NeuO (Er et al., [2015]) a fluorescent probe which could selectively stain neurons, or immunostaining of an astrocyte marker GFAP (glial fibrillary acidic protein), respectively. The nuclei were stained by using Hoechst 33342 followed by the microscopic analysis. Their activities were determined by calculating a ratio NeuO or GFAP positive cells to whole cells and comparing with that of the control. […] Furthermore, the astrocytic or neuronal differentiation were promoted or inhibited, respectively, by treatment with four analogs of compound 1.
(§2) V. Procedures for Biological Tests:
(§3) Induction of neural stem cells in vitro: Neural stem cells (NSCs) were obtained following the procedure (Iwata, et al., 2016; Nakayama, et al., 2006) with modification. Embryoid bodies (EBs) were induced by hanging drop method for 72 hours using 7,500 cells per 20 µL of ESCs culturing medium without LIF. Then the EBs were cultured in non-adhesive bacterial dishes in Neuron Culture Medium (Sumitomo Bakelite, Tokyo, Japan) supplemented with 20 ng/mL rhEGF (R&D Systems, Minneapolis, MN, USA) and 20 ng/mL rhFGF-2 (R&D Systems). […]

[2] = test system: neural stem cells (NSCs); test: NSC differentiation assay, neuronal differentiation (NeuO staining); format: cell-based; settings: 2.5, 5 and 10 μM, 72 hours in differentiation medium, Hoechst 33342 nuclei, n = 3
Protocol: as §1, §2, §3

[3] = test system: astrocytes; test: Cell cytotoxicity toward astrocytes (Hoechst 33342 staining); format: cell-based; settings: 2.5, 5 and 10 μM, n = 3
Excerpt: (§4) Bioactive compounds modulating proliferation and differentiation of neural stem cells are required as chemical probes to study about mechanism of neural development or lead compounds for regenerative medicine. In order to evaluate neural differentiation-modulating activities of kakeromamide A and its analogs, we elected to perform the biological tests using the same procedure that we reported in the isolation paper (Nakamura et al., [2018]). Neural stem cells were obtained following the procedure (Nakayama and Inoue, [2006]; Iwata et al., [2016]) with modification. 2.5, 5, and 10 μM of kakeromamide A or its respective derivative was added to astrocytes or neurons. The cell cytotoxicity of kakeromamide A and its analogs toward astrocytes or neurons was carried out using Hoechst 33342 staining (Figure 7).
(§5) Figure 7 Cytotoxicity of Kakeromamide A and Its Analogs. (A) Percentages of cell numbers calculated by Hoechst 33342 positive cells, compared to that of control, in evaluating effects of kakeromamide A and its analogs for astrocytes (n = 3, means ± S.D., *p < 0.05). (B) Percentages of cell numbers calculated by Hoechst 33342 positive cells, compared to that of control, in evaluating effects of kakeromamide A and its analogs for neurons (n = 3, means ± S.D., *p < 0.05).

[4] = test system: neurons; test: Cell cytotoxicity toward neurons (Hoechst 33342 staining); format: cell-based; settings: 2.5, 5 and 10 μM, n = 3
Excerpt: as §4, §5

[5] = test system: Hela cells; settings: preliminary biological tests of the isolated natural product; ref Nakamura et al., 2018; read-out: cytotoxicity IC50 against Hela cells; cited from earlier work
Excerpt: (§6) Marine cyanobacteria have been playing a pivotal role in producing structurally diversified and biologically intriguing peptides (Luesch et al., [2001]; Guzman-Martinez et al., [2007]; Zainuddin et al., [2007]). In 2018, we reported the isolation of a novel cyclopeptide, kakeromamide A (Figure 1), from the marine cyanobacterium Moorea bouillonii collected near Japan (Nakamura et al., [2018]). […] To the best of our knowledge, this is the first example of marine cyclopeptide t ...

[6] = test system: neural stem cells (NSCs); settings: isolated natural product; ref Nakamura et al., 2018; cited from earlier work
Excerpt: as §6

Kakeromamide A
astrocytic differentiation of NSCs (ratio of GFAP positive cells to whole cells vs control) [1]: promoting differentiation of NSCs into astrocytes | neuronal differentiation of NSCs (ratio of NeuO positive cells to whole cells vs control) [2]: inhibiting neuronal differentiation of NSCs | cytotoxicity toward astrocytes (cell number by Hoechst 33342 positive cells vs control) [3]: No significant cytotoxicity | cytotoxicity toward neurons (cell number by Hoechst 33342 positive cells vs control) [4]: No significant cytotoxicity | IC50 [5]: 10 µM | concentration inducing neural stem cells differentiation into astrocytes [6]: 2.5 to 10 µM
